Assays:
[1] = Determination of PCB concentrations in plasma of HELPcB and control participants; format: in vivo; conditions: human plasma; for PCB plasma concentration, Geometric mean, HELPcB: HELPcB group; for PCB plasma concentration, Geometric mean, HELPcB / PCB plasma concentration, Geometric mean, Control: N 10; for PCB plasma concentration, Geometric mean, Control: control group
Description: The laboratory regularly participates in round robins for the determination of PCBs in plasma (www.g-equas.de).
Plasma concentrations of PCB congeners were quantified in blood samples from all participants using gas chromatography/mass spectrometry (GC–MS) (Fig. 2A and Supplementary Table 2). A total of 19 PCB congeners were measured in control (n = 10) and HELPcB (n = 10) participants, with PCBs detected in all individuals. […] In the control group, PCB plasma concentrations primarily reflected background environmental exposure, such as dietary intake, representing the general population’s burden.

[2] = system: CYP2C9; assay: CYP phenotyping cocktail clinical study: torsemide/OH-torsemide metabolic ratio and its association with PCB plasma levels; conditions: linear regression of MR AUC0–8 h OH-torsemide/torsemide (CYP2C9 activity) on PCB plasma concentration
Description: (§1) The participants were ascertained not to have any acute disease by medical history, physical examination, laboratory screening, including hematological and biochemical blood tests, and a 12-lead electrocardiogram. […] The demographic data of the subjects are summarized in Table 1 in the supplemental data. At the enrollment visit, 2 blood samples (9 ml each) were collected into ethylenediaminetetraacetic acid (EDTA)-containing tubes taken from each subject for analyzing the plasma concentrations of PCB congeners and for pharmacogenetic analysis.
(§2) Participants stayed fasted from the evening before until 3 h after drug administration. After that, a meal was provided. Water and juice were permitted but alcoholic and caffeinated beverages were not allowed from the evening before drug administration until the last blood sample was taken on the next day. Venous blood samples (9 ml each) were collected through an intravenous catheter immediately before and 0.25, 0.5, 0.75, 1, 1.5, 2, 2.5, 3, 4, 5, 6, 7, 8, and 24 h after drug administration. Blood was drawn into EDTA-coated tubes, centrifuged at 1500 g for 10 min at 4 °C, and plasma samples were subsequently stored at − 80 °C until further analysis. After completely voiding the bladder immediately before drug administration, the participants collected urine from 0 to 24 h after drug administration. After weighing the collected urine, a 10 ml aliquot of each fraction was taken.
(§3) Commercially sourced standards and internal standards were used for quantification (see Supplemental Materials). In brief, 20 µl of the plasma samples were protein-precipitated with 80 µl methanol containing all internal standards or were treated for 16 h at 37 °C with 2 µl β-glucuronidase (1,000,000 Units) for deconjugation before protein precipitation with 78 µl methanol containing internal standards. Samples were centrifuged for 20 min, at 4 °C and 17,000 × g, and 40 µl of the supernatants were diluted with 40 µl LC–MS grade water, centrifuged again for 5 min at 4 °C and 17,000 × g and 50 µl supernatant were transferred to LC–MS vials 5 µl of the samples were injected into the LC–MS system.
(§4) An Agilent 1290 Infinity II UHPLC coupled with a SCIEX QTRAP6500 + triple quadrupole mass spectrometer was used. Chromatographic separation was achieved on an Agilent Poroshell 120 EC-C18 (1.9 µm, 2.1 × 50 mm) column with A: 0.1% formic acid in water and B: methanol with a flow rate of 0.7 ml/min and a total run time of 8.5 min. Analytes were eluted using a gradient program. The following gradient steps represent gradual changes in % B over time: 5% B from 0 to 0.2 min, 30% B at 2 min, 34% B at 4.8 min, 95% B at 6.5 min, 95% B at 7.5 min and re-equilibrating to 5% B at 7.7 min and 5%B till 8.5 min. A representative chromatogram is shown in supplemental Fig. 2. The scheduled MRM mode was applied for analyte detection in both positive and negative ESI modes (Supplementary Table 4). Calibration curves were constructed with linear regression using weighted (1/x^2) models (detailed information in supplemental methods).
(§5) Partial areas under the plasma concentration–time curves from 0 to 3 h (AUC0–3 h), from 0 to 4 h (AUC0–4 h), and from 0 to 8 h (AUC0–8 h) were calculated based on measured concentrations by the linear trapezoidal rule without extrapolation. […] Metabolic ratios (MR) were calculated by dividing the partial AUC of the metabolite by the respective partial AUC of the parent drug. The MRs were used as biomarkers for the individual CYP activities of the study subjects.

[3] = system: CYP2D6; assay: CYP phenotyping cocktail clinical study: metoprolol/α-OH-metoprolol metabolic ratio and its association with PCB plasma levels; conditions: linear regression of MR AUC0–8 h α-OH-metoprolol/metoprolol (CYP2D6 activity) on PCB plasma concentration
Description: as §1, §2, §3, §4, §5

[4] = system: CYP1A2; assay: CYP phenotyping cocktail clinical study: caffeine/paraxanthine metabolic ratio and its association with PCB plasma levels; conditions: linear regression of MR AUC0–8 h paraxanthine/caffeine (CYP1A2 activity) on PCB plasma concentration
Description: as §1, §2, §3
An Agilent 1290 Infinity II UHPLC coupled with a SCIEX QTRAP6500 + triple quadrupole mass spectrometer was used. […]
as §5, with “The MRs were used as biomarkers for the individual CYP activities of the study subjects.” left out

[5] = Stability of substrates and metabolites in quality control samples (benchtop, autosampler, freeze-thaw); format: physicochemical; conditions: for Autosampler stability (24 h) Av. Accuracy (%): 10° C for 24 hours in the autosampler; for 3x freeze-thaw Av. Accuracy (%): after three freeze-thaw cycles; for Benchtop stability (19 h) Ac. Accuracy (%): room temperature for 19 hours
Description: The method was validated for intra- and interday accuracy and precision, stability, and matrix effects. […] Validation details are provided in Supplementary Tables 5–7 and supplemental Fig. 3. Glucuronidase/sulfatase digests were used to isolate CYP-specific metabolic activities, reducing interference from polymorphic UDP-glucuronosyltransferase (UGT) and sulfotransferase isoforms.
Supplemental table 6: Stability of the substrates and metabolites. Quality control samples were left at room temperature for 19 hours (benchtop stability) and at 10° C for 24 hours in the autosampler (autosampler stability) or were measured after three freeze-thaw cycles. Stability samples were measured against a freshly prepared set of calibrators and quality control samples.

SMILES	PCB plasma concentration, Geometric mean, HELPcB [1]	PCB plasma concentration, Geometric mean, Control [1]	further results
Clc1ccc(-c2cc(Cl)c(Cl)c(Cl)c2)cc1 [PCB 81]	BLQ	BLQ	–
Clc1ccc(Cl)c(-c2cc(Cl)c(Cl)cc2Cl)c1 [PCB 101]	0.005 ng/mL	BLQ	–
Clc1cc(Cl)c(-c2cc(Cl)c(Cl)c(Cl)c2Cl)cc1Cl [PCB 180]	0.808 ng/mL	0.372 ng/mL	–
Clc1ccc(-c2cc(Cl)c(Cl)c(Cl)c2)c(Cl)c1 [PCB 123]	BLQ	BLQ	–
Clc1ccc(-c2cc(Cl)c(Cl)c(Cl)c2)cc1Cl [PCB 126]	BLQ	BLQ	–
Clc1cc(Cl)c(-c2cc(Cl)c(Cl)c(Cl)c2)cc1Cl [PCB 167]	0.027 ng/mL	0.008 ng/mL	–
Clc1cc(-c2ccc(Cl)c(Cl)c2Cl)cc(Cl)c1Cl [PCB 157]	0.016 ng/mL	0.005 ng/mL	–
Clc1cc(-c2cc(Cl)c(Cl)c(Cl)c2)cc(Cl)c1Cl [PCB 169]	BLQ	BLQ	–
Clc1cc(-c2cc(Cl)c(Cl)c(Cl)c2Cl)cc(Cl)c1Cl [PCB 189]	0.014 ng/mL	0.007 ng/mL	–
Clc1ccc(-c2ccc(Cl)cc2Cl)cc1 [PCB 28]	0.014 ng/mL	0.006 ng/mL	–
Clc1cc(Cl)c(-c2cc(Cl)c(Cl)cc2Cl)cc1Cl [PCB 153]	0.919 ng/mL	0.297 ng/mL	–
Clc1cc(Cl)c(-c2ccc(Cl)c(Cl)c2Cl)cc1Cl [PCB138]	0.672 ng/mL	0.173 ng/mL	t value [2]: 0,341; β (standardized regression coefficient) [2]: 0,080; t value ([2]; PM excl): 0,219; β (standardized regression coefficient) ([2]; PM excl): 0,053; PCB plasma concentration, Mean [±SD] HELPcB ([1]; HELPcB (occupationally exposed) group): 0.795 ± 0.593 ng/mL; PCB plasma concentration, Mean [±SD] all ([1]; all participants): 0.493 ± 0.516 ng/mL; PCB plasma concentration, Mean [±SD] control ([1]; control group (background exposure)): 0.191 ± 0.090 ng/mL; t value [3]: 0,157; β (standardized regression coefficient) [3]: 0,037; t value [4]: 0,221; β (standardized regression coefficient) [4]: 0,052
Clc1ccc(-c2ccc(Cl)c(Cl)c2)cc1Cl [PCB 77]	BLQ	BLQ	–
Clc1ccc(Cl)c(-c2cc(Cl)ccc2Cl)c1 [PCB 52]	BLQ	BLQ	–
Clc1ccc(-c2cc(Cl)c(Cl)c(Cl)c2Cl)cc1 [PCB 114]	0.008 ng/mL	BLQ	–
Clc1ccc(-c2cc(Cl)c(Cl)c(Cl)c2Cl)cc1Cl [PCB 156]	0.097 ng/mL	0.036 ng/mL	–
Cc1ncc2n1-c1ccc(Cl)cc1C(c1ccccc1F)=NC2 [midazolam, reference compound]	–	–	Autosampler stability (24 h) Av. Accuracy (%) ([5]; QC conc. 0,1 ng/ml): 107,46%; 3x freeze-thaw Av. Accuracy (%) ([5]; QC conc. 0,1 ng/ml): 104,96%; Benchtop stability (19 h) Ac. Accuracy (%) ([5]; QC conc. 0,1 ng/ml): 106,81%; Autosampler stability (24 h) Av. Accuracy (%) ([5]; QC conc. 0,3 ng/ml): 104,87%; 3x freeze-thaw Av. Accuracy (%) ([5]; QC conc. 0,3 ng/ml): 98,61%; Benchtop stability (19 h) Ac. Accuracy (%) ([5]; QC conc. 0,3 ng/ml): 104,39%; Autosampler stability (24 h) Av. Accuracy (%) ([5]; QC conc. 0,05 ng/ml): 103,51%; 3x freeze-thaw Av. Accuracy (%) ([5]; QC conc. 0,05 ng/ml): 109,93%; Benchtop stability (19 h) Ac. Accuracy (%) ([5]; QC conc. 0,05 ng/ml): 89,44%; Autosampler stability (24 h) Av. Accuracy (%) ([5]; QC conc. 12 ng/ml): 110,93%; 3x freeze-thaw Av. Accuracy (%) ([5]; QC conc. 12 ng/ml): 103,85%; Benchtop stability (19 h) Ac. Accuracy (%) ([5]; QC conc. 12 ng/ml): 109,38%; Autosampler stability (24 h) Av. Accuracy (%) ([5]; QC conc. 30 ng/ml): 99,76%; 3x freeze-thaw Av. Accuracy (%) ([5]; QC conc. 30 ng/ml): 97,41%; Benchtop stability (19 h) Ac. Accuracy (%) ([5]; QC conc. 30 ng/ml): 99,8%
Clc1ccc(-c2ccc(Cl)c(Cl)c2Cl)cc1Cl [PCB 105]	0.014 ng/mL	BLQ	–

Source: article PMC12477080, “Polychlorinated biphenyls (PCBs) interact with drug metabolism in vivo” (Archives of Toxicology, 2025)
